pEC50: −log10 of the molar value. Where two headings read alike, the source gives them in different places.
Experiments:
GLP-1R = GLP-1R (Homo sapiens, UniProt P43220); experiment: GLP-1R activation: cAMP increase in CHO cells stably expressing GLP-1R; format: cell-based; conditions: read-out: EC50
[1] = Microsomal stability, human liver microsomes (predicted hepatic clearance); conditions: predicted from in vitro microsomal stability data
[2] = cAMP increase, CHO cells stably expressing GLP-1R, 10 point dose response, 30 minutes incubation

GLP-1R, sequence (P43220 24-463): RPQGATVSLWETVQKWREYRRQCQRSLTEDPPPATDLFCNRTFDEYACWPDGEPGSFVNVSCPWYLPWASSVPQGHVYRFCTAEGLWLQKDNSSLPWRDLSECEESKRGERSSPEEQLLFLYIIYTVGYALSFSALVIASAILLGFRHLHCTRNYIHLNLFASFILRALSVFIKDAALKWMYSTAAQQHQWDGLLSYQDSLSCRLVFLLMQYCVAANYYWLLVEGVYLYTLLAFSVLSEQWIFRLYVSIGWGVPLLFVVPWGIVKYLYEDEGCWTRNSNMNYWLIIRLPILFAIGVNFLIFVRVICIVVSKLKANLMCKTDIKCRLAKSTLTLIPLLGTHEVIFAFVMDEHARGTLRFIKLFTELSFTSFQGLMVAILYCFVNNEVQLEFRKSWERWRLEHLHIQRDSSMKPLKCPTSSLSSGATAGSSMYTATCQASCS

SMILES | pEC50 (GLP-1R; [2]) | Predicted Hepatic Clearance (Pred. Cl.) [1] [mL/min/kg] | pEC50 (GLP-1R)
N#Cc1ccc(COc2nccc(-c3ccc(Cc4nc5ccc(C(=O)O)cc5n4C[C@@H]4CCO4)cc3F)n2)c(F)c1 [Example 403, (S)-2-(4-(2-((4-cyano-2-fluorobenzyl)oxy)pyrimidin-4-yl)-3-fluorobenzyl)-1-(oxetan-2-ylmethyl)-1H-benzo[d]imidazole-6-carboxylic acid] | 9.05 | 4.95 | 
COCCn1c(Cc2cc(F)c(-c3ccnc(OCc4ccc(C(F)F)cc4F)n3)cc2F)nc2c(F)cc(C(=O)O)cc21 [Example 672] | 9.24 | 1.83 | 
N#Cc1ccc(COc2nc(-c3cc(F)c(Cc4nc5ccc(C(=O)O)cc5n4C[C@@H]4CCO4)c(F)c3F)ncc2F)c(F)c1 [Example 166, (S)-2-(4-(4-((4-cyano-2-fluorobenzyl)oxy)-5-fluoropyrimidin-2-yl)-2,3,6-trifluorobenzyl)-1-(oxetan-2-ylmethyl)-1H-benzo[d]imidazole-6-carboxylic acid] | 10.22 | 4.83 | 
N#Cc1ccc(COc2ccc(F)c(-c3cc(F)c(Cc4nc5c(F)cc(C(=O)O)cc5n4C[C@@H]4CCO4)cc3F)n2)cn1 [Example 852, (S)-2-(4-(6-((6-cyanopyridin-3-yl)methoxy)-3-fluoropyridin-2-yl)-2,5-difluorobenzyl)-4-fluoro-1-(oxetan-2-ylmethyl)-1H-benzo[d]imidazole-6-carboxylic acid] | 9.62 | 4.5 | 
COCCn1c(Cc2cc(F)c(-c3cccc(OCc4cccc(-c5ccccn5)c4)n3)cc2F)nc2ccc(C(=O)O)cc21 [Example 908] | 8.18 | 5.17 | 
COCCn1c(Cc2ccc(-c3csc(OCc4ccc(C#N)cc4F)n3)cc2F)nc2ccc(C(=O)O)cc21 [Example 26, 2-(4-(2-((4-cyano-2-fluorobenzyl)oxy)thiazol-4-yl)-2-fluorobenzyl)-1-(2-methoxyethyl)-1H-benzo[d]imidazole-6-carboxylic acid] | 6.94 | 4.67 | 
COCCn1c(Cc2ccc(-c3cccc(OCc4ccc(C#N)c5ccoc45)n3)cc2F)nc2ccc(C(=O)O)cc21 [Example 135, 2-(4-(6-((4-cyanobenzofuran-7-yl)methoxy)pyridin-2-yl)-2-fluorobenzyl)-1-(2-methoxyethyl)-1H-benzo[d]imidazole-6-carboxylic acid] | 8.75 | <1.83 | 
CCn1cncc1Cn1c(Cc2ccc(-c3ccc(F)c(OCc4ccc(Cl)cc4F)c3)cc2F)nc2ccc(C(=O)O)cc21 [Example 466, 2-((3′-((4-chloro-2-fluorobenzyl)oxy)-3,4′-difluoro-[1,1′-biphenyl]-4-yl)methyl)-1-((1-ethyl-1H-imidazol-5-yl)methyl)-1H-benzo[d]imidazole-6-carboxylic acid] | 8.73 | 3.83 | 
N#Cc1ccc(COc2nc(-c3cc(F)c(Cc4nc5ccc(C(=O)O)cc5n4CCOC4CC4)cc3F)ccc2F)c(F)c1 [Example 900] | 8.90 | 1.83 | 
COCCn1c(Cc2ccc(-c3ccc(F)c(OCc4ccc(C#N)cc4F)n3)cc2F)nc2ccc(C(=O)O)cc21 [Example 87, 2-(4-(6-((4-cyano-2-fluorobenzyl)oxy)-5-fluoropyridin-2-yl)-2-fluorobenzyl)-1-(2-methoxyethyl)-1H-benzo[d]imidazole-6-carboxylic acid] | 8.25 | <1.83 | 
CC(=O)NCCn1c(Cc2ccc(-c3cccc(OCc4ccc(C#N)cc4F)n3)cc2F)nc2ccc(C(=O)O)cc21 [Example 485, 1-(2-acetamidoethyl)-2-(4-(6-((4-cyano-2-fluorobenzyl)oxy)pyridin-2-yl)-2-fluorobenzyl)-1H-benzo[d]imidazole-6-carboxylic acid] |  | 3.67 | 6.99
N#Cc1ccc(COc2ccnc(-c3ccc(Cc4nc5ccc(C(=O)O)cc5n4C[C@@H]4CCO4)cc3F)n2)c(F)c1 [Example 777] | 9.14 | 4.5 | 
N#Cc1ccc(COc2cccc(-c3cc(F)c(Cc4nc5ccc(C(=O)O)cc5n4CC4COC4)cc3F)n2)c(F)c1 [Example 307, 2-(4-(6-((4-cyano-2-fluorobenzyl)oxy)pyridin-2-yl)-2,5-difluorobenzyl)-1-(oxetan-3-ylmethyl)-1H-benzo[d]imidazole-6-carboxylic acid] | 8.10 | 5.33 | 
CC(=O)N1CC[C@@H]1Cn1c(Cc2ccc(-c3cccc(OCc4ccc(C#N)cc4F)n3)cc2F)nc2ccc(C(=O)O)cc21 [Example 483, (R)-1-((1-acetylazetidin-2-yl)methyl)-2-(4-(6-((4-cyano-2-fluorobenzyl)oxy)pyridin-2-yl)-2-fluorobenzyl)-1H-benzo[d]imidazole-6-carboxylic acid] |  | 2.5 | 8.40
COCCn1c(C2CCc3cc(-c4cccc(OCc5ccc(C#N)cc5F)n4)ccc32)nc2ccc(C(=O)O)cc21 (stereo not drawn) [Example 36, 2-(5-(6-((4-cyano-2-fluorobenzyl)oxy)pyridin-2-yl)-2,3-dihydro-1H-inden-1-yl)-1-(2-methoxyethyl)-1H-benzo[d]imidazole-carboxylic acid] | 6.97 | 4 | 
Cc1cc2nc(Cc3cc(F)c(-c4cccc(OCc5ccc(C#N)cc5F)n4)cc3F)n(C[C@@H]3CCO3)c2cc1C(=O)O [Example 921] | 9.48 | 2.83 | 
COCCn1c(Cc2cc(F)c(-c3ccc(OC)c(OCc4ccc(C#N)cc4F)n3)cc2F)nc2ccc(C(=O)O)cc21 [Example 541, 2-(4-(6-((4-cyano-2-fluorobenzyl)oxy)-5-methoxypyridin-2-yl)-2,5-difluorobenzyl)-1-(2-methoxyethyl)-1H-benzo[d]imidazole-6-carboxylic acid] | 7.55 | 3.67 | 
COCCn1c(Cc2ccc(-c3cccc(OCc4ccccc4SC)n3)cc2F)nc2ccc(C(=O)O)cc21 [Example 249, 2-(2-fluoro-4-(6-((2-(methylthio)benzyl)oxy)pyridin-2-yl)benzyl)-1-(2-methoxyethyl)-1H-benzo[d]imidazole-6-carboxylic acid] | 6.76 | 15.5 | 
CCc1cnccc1Cn1c(Cc2ccc(-c3cccc(OCc4ccc(C#N)cc4F)n3)c(F)c2)nc2ccc(C(=O)O)cc21 [Example 534, 2-(4-(6-((4-cyano-2-fluorobenzyl)oxy)pyridin-2-yl)-3-fluorobenzyl)-1-((3-ethylpyridin-4-yl)methyl)-1H-benzo[d]imidazole-6-carboxylic acid] | 7.30 | 15.2 | 
O=C(O)c1ccc2nc(Cc3cc(F)c(-c4cccc(OCc5ccc(C(F)F)cc5F)n4)cc3F)n(C[C@@H]3CCO3)c2c1 [Example 800] | 10.00 | 1.83 | 
C[C@]1(Cn2c(Cc3ccc(-c4cccc(OCc5ccc(C#N)cc5F)n4)cc3F)nc3ccc(C(=O)O)cc32)CCO1 [Example 123, (R)-2-(4-(6-((4-cyano-2-fluorobenzyl)oxy)pyridin-2-yl)-2-fluorobenzyl)-1-((2-methyloxetan-2-yl)methyl)-1H-benzo[d]imidazole-6-carboxylic acid] | 8.51 | 5.17 | 

Source: patent US11702404B2, “GLP-1R modulating compounds” (priority 2019, dated 2023)
